According to patent publication US20210322415A1 (priority 2016, published 2021):

Legend:
[1] = system: OV2022 tumour (ovarian cancer) xenografts; experiment: OV2022 patient derived tumour xenograft efficacy study; format: in vivo; settings: 3 mg/kg, 5 days on 2 days off vs daily, alone or with 100 mg/kg olaparib
[2] = system: tumors; settings: reported in literature; cited from earlier work
[3] = system: SW620, Calu6 and A498 tumor xenografts; experiment: Tumor xenograft efficacy studies with intermittent dosing; format: in vivo, nude or scid mice; settings: for anti-tumor effects: oral once daily
Text: Tumors were selected and randomized into groups when tumor volume reached approximately 0.2 cm^3. […] Groups of 10 animals were used, however in the final cycle cohorts of 5 animals were removed in between dosing group to support assessment of pharmacodynamic biomarkers in the tumor.

[4] = target: c-kit (Homo sapiens, UniProt P10721); experiment: Target cover in pre-clinical models: modelled mean free plasma concentration vs cellular IC50; format: in vivo; settings: doses up to 2.4 mg/kg
Sequence of c-kit (P10721 26-976): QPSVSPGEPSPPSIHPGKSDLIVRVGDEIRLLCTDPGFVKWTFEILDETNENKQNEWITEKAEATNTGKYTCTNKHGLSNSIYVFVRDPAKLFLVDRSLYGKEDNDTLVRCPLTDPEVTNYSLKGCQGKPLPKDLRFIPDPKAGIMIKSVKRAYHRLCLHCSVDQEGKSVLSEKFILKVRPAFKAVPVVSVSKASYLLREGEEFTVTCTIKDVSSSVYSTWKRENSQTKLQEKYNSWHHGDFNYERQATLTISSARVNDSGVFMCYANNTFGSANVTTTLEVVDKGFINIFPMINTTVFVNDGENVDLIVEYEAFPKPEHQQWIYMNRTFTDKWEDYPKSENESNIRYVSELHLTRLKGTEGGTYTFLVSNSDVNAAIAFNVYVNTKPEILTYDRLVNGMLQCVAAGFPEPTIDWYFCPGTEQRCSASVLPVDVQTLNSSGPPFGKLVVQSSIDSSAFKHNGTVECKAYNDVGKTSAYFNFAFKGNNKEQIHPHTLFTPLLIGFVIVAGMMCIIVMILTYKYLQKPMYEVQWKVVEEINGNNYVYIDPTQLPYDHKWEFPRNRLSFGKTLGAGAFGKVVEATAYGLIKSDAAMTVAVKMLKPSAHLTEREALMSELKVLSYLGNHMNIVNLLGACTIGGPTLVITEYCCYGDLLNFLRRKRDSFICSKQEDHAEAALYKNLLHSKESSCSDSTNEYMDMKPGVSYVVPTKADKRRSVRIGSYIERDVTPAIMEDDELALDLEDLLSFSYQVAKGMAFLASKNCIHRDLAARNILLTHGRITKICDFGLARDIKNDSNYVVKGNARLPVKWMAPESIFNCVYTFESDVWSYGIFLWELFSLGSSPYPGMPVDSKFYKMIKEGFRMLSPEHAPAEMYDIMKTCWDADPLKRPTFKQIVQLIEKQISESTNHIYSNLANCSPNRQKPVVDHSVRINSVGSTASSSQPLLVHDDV
Experimental: 4.8 mg/kg (FIGS. 1M-1P) following dosing zs regimens of once daily continuous (QDCont), once daily 5 days on 2 days off (QD5on2off), or once daily 4 days (QD4on3off). […] The reduction in PK is shown following the last dose of drug (at either 4 or 5 days dosing), and overlaid on each plot (horizontal lines) are the cellular IC50 values generated in vitro for inhibition of pVEGFR-1,-2, pKit, pPDGFRα and pPDGFRβ, as indicated. For the plots exemplifying VEGFR and Kit cover, R-P stands for receptor phosphorylation in a cell based assay; C-P stands for cell proliferation; for VEGFR plots, T-G stands for tubule growth in an endothelial-fibroblast co-culture assay. […] For the graphs depicting PDGFRα and β cover, inhibition of PDGFRα and PDGFRβ phosphorylation and PDGFBB or PDGFAA driven proliferation are shown together with the relevant cell lines.

COc1cc2c(Oc3ccc4[nH]c(C)cc4c3F)ncnc2cc1OCCCN1CCCC1.O=C(O)/C=C\C(=O)O [cediranib, 4-[(4-fluoro-2-methyl-1H-indol-5-yl)oxy]-6-methoxy-7-[3-(pyrrolidin-1-yl)propoxy]quinazoline maleate]
efficacy of intermittent schedule versus constant dose [1]: equivalent efficacy | tumor growth in a range of preclinical models [2]: inhibit the growth of tumors in a dose-dependent manner | efficacy (mean tumor volume versus time) ([3]; 1.5 mg/kg, 4/3 schedule, three 7-day cycles (FIG. 5)): in 2 out of the three models intermittent dosing of cediranib at 1.5 mg/kg on a 4/3 schedule maintains efficacy | efficacy (mean tumor volume versus time) ([3]; 1.5 mg/kg, 5/2 schedule, three 7-day cycles (FIG. 3)): maintains efficacy | efficacy (mean tumor volume versus time) ([3]; 3 mg/kg, 4/3 schedule, three 7-day cycles (FIG. 6)): maintains efficacy | efficacy (mean tumor volume versus time) ([3]; 3 mg/kg, 5/2 schedule, three 7-day cycles (FIG. 4)): maintains efficacy | anti-tumor effects ([3]; 4 days on 3 days off schedule): maintains anti-tumor effects albeit at not as effectively as the 5/2 schedule | anti-tumor effects ([3]; 5 days on 2 days off schedule, monotherapy): maintains anti-tumor effects | anti-tumor activity, intermittent compared to daily schedule ([3]; preclinical in vivo data, 5 days on/2 days off vs daily): no difference in anti-tumor activity | target cover versus c-kit [4]: achieving target cover
